{"source": "paper PMC11111408", "about": "“Concurrent inhibition of oncogenic and wild-type RAS-GTP for cancer therapy” (Nature, 2024)", "key": {"[1]": {"test_system": "AsPC-1 and NCI-H441 cells", "assay": "pERK (MSD) and proliferation (CTG) in AsPC-1 and NCI-H441 cells, CYPA inhibitor co-treatment or PPIA KO;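 as to Proliferation inhibition with CYPA inhibitor competition: luminescence as % of CYPA inhibitor-only control with 3 mM sanglifehrin A competitor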", "type": "cell-based, human", "conditions": "for Proliferation, RMC-7977 with or without CYPA inhibitor (panel title not shown): ASPC1, RMC-7977 alone; for activity at 0.0037 µM / activity at 0.01111 µM / activity at 0.03333 µM / activity at 15.2 pM / activity at 45.7 pM / activity at 0.00041 µM / activity at 0.1 µM / activity at 0.3 µM / activity at 5.08 pM: Homo sapiens"}, "KRAS^G12V": {"target": "KRAS^G12V (Homo sapiens, UniProt P01116+P62937, G12V)", "assay": "KRAS–RALGDS RID binding inhibition in vitro", "type": "biochemical", "set-up": "His6-TEV (N); made in house; host or cells: BL21(DE3) Escherichia coli; TR-FRET of recombinant KRAS and RALGDS RID: scale not given here", "conditions": "for TR-FRET of recombinant KRAS and RALGDS RID: KRAS G12V, single replicates"}}, "note": "Where “and” joins values, the source holds several entries; their conditions need not be identical. Identical values can stand only once. Like-named read-outs stand apart in the source and are kept apart here.", "data": [{"smiles": "CCn1c(-c2cc(N3CCN(C4CC4)CC3)cnc2[C@H](C)OC)c2c3cc(ccc31)-c1csc(n1)C[C@H](NC(=O)[C@H]1[C@@H]3COC[C@@H]31)C(=O)N1CCC[C@H](N1)C(=O)OCC(C)(C)C2", "note": "[RMC-7977]", "values": [{"measurement": "Proliferation, RMC-7977 with or without CYPA inhibitor (panel title not shown)", "setting": "[1]; 11.11 nM, 0.01111 µM", "value": 24.3804}, {"measurement": "Proliferation, RMC-7977 with or without CYPA inhibitor (panel title not shown)", "setting": "[1]; 33.33 nM, 0.03333 µM", "value": 12.3077}, {"measurement": "Proliferation, RMC-7977 with or without CYPA inhibitor (panel title not shown)", "setting": "[1]; 100.00 nM, 0.1 µM", "value": 7.228}, {"measurement": "Proliferation, RMC-7977 with or without CYPA inhibitor (panel title not shown)", "setting": "[1]; 300.00 nM, 0.3 µM", "value": 13.3948}, {"measurement": "Proliferation, RMC-7977 with or without CYPA inhibitor (panel title not shown)", "setting": "[1]; […], 5.08 pM", "value": 94.1273}, {"measurement": "activity at 0.0037 µM", "setting": "[1]; ASPC1, read-out: Proliferation inhibition in PPIA KO cells treated with RMC-7977, AsPC-1, 3.70 nM", "value": 33, "unit": "%"}, {"measurement": "activity at 0.01111 µM", "setting": "[1]; ASPC1, read-out: Proliferation inhibition in PPIA KO cells treated with RMC-7977, AsPC-1, 11.11 nM", "value": 17.6, "unit": "%"}, {"measurement": "activity at 0.03333 µM", "setting": "[1]; ASPC1, read-out: Proliferation inhibition in PPIA KO cells treated with RMC-7977, AsPC-1, 33.33 nM", "value": 8.78, "unit": "%"}, {"measurement": "activity at 15.2 pM", "setting": "[1]; ASPC1, read-out: Proliferation, RMC-7977 with or without CYPA inhibitor (panel title not shown), ASPC1, RMC-7977 alone, 0.0152 nM", "value": 102, "unit": "%"}, {"measurement": "activity at 45.7 pM", "setting": "[1]; ASPC1, read-out: Proliferation, RMC-7977 with or without CYPA inhibitor (panel title not shown), ASPC1, RMC-7977 alone, 0.0457 nM", "value": 92.6, "unit": "%"}, {"measurement": "activity at 0.00041 µM", "setting": "[1]; ASPC1, read-out: Proliferation, RMC-7977 with or without CYPA inhibitor (panel title not shown), ASPC1, RMC-7977 alone, 0.41 nM", "value": 84.8, "unit": "%"}, {"measurement": "activity at 0.0037 µM", "setting": "[1]; ASPC1, read-out: Proliferation, RMC-7977 with or without CYPA inhibitor (panel title not shown), ASPC1, RMC-7977 alone, 3.70 nM", "value": 47.4, "unit": "%"}, {"measurement": "activity at 0.01111 µM", "setting": "[1]; ASPC1, read-out: Proliferation, RMC-7977 with or without CYPA inhibitor (panel title not shown), ASPC1, RMC-7977 alone, 11.11 nM", "value": 29.5, "unit": "%"}, {"measurement": "activity at 0.03333 µM", "setting": "[1]; ASPC1, read-out: Proliferation, RMC-7977 with or without CYPA inhibitor (panel title not shown), ASPC1, RMC-7977 alone, 33.33 nM", "value": 12.8, "unit": "%"}, {"measurement": "activity at 0.1 µM", "setting": "[1]; ASPC1, read-out: Proliferation, RMC-7977 with or without CYPA inhibitor (panel title not shown), ASPC1, RMC-7977 alone, 100.00 nM", "value": 7.14, "unit": "%"}, {"measurement": "activity at 0.3 µM", "setting": "[1]; ASPC1, read-out: Proliferation, RMC-7977 with or without CYPA inhibitor (panel title not shown), ASPC1, RMC-7977 alone, 300.00 nM", "value": 14.9, "unit": "%"}, {"measurement": "activity at 5.08 pM", "setting": "[1]; ASPC1, read-out: Proliferation, RMC-7977 with or without CYPA inhibitor (panel title not shown), ASPC1, RMC-7977 alone, […]", "value": 101, "unit": "%"}, {"measurement": "activity at 0.00041 µM", "setting": "[1]; ASPC1, read-out: pERK inhibition in PPIA KO cells treated with RMC-7977, AsPC-1, 0.41 nM", "value": 85.8, "unit": "%"}, {"measurement": "activity at 5.08 pM", "setting": "[1]; ASPC1, read-out: pERK inhibition in PPIA KO cells treated with RMC-7977, AsPC-1, […]", "value": 109, "unit": "%"}, {"measurement": "activity at 0.0037 µM", "setting": "[1]; ASPC1, read-out: pERK inhibition in PPIA KO cells treated with RMC-7977, AsPC-1 PPIA KO, 3.70 nM", "value": 109, "unit": "%"}, {"measurement": "activity at 0.01111 µM", "setting": "[1]; ASPC1, read-out: pERK inhibition in PPIA KO cells treated with RMC-7977, AsPC-1 PPIA KO, 11.11 nM", "value": 110, "unit": "%"}, {"measurement": "activity at 15.2 pM", "setting": "[1]; NCI-H441, read-out: Proliferation inhibition in PPIA KO cells treated with RMC-7977, NCI-H441, 0.0152 nM", "value": 124, "unit": "%"}, {"measurement": "activity at 45.7 pM", "setting": "[1]; NCI-H441, read-out: Proliferation inhibition in PPIA KO cells treated with RMC-7977, NCI-H441, 0.0457 nM", "value": 124, "unit": "%"}, {"measurement": "activity at 0.0037 µM", "setting": "[1]; NCI-H441, read-out: Proliferation inhibition in PPIA KO cells treated with RMC-7977, NCI-H441, 3.70 nM", "value": 33, "unit": "%"}, {"measurement": "activity at 0.01111 µM", "setting": "[1]; NCI-H441, read-out: Proliferation inhibition in PPIA KO cells treated with RMC-7977, NCI-H441, 11.11 nM", "value": 24.4, "unit": "%"}, {"measurement": "activity at 0.03333 µM", "setting": "[1]; NCI-H441, read-out: Proliferation inhibition in PPIA KO cells treated with RMC-7977, NCI-H441, 33.33 nM", "value": 22.2, "unit": "%"}, {"measurement": "activity at 0.1 µM", "setting": "[1]; NCI-H441, read-out: Proliferation inhibition in PPIA KO cells treated with RMC-7977, NCI-H441, 100.00 nM", "value": 23.6, "unit": "%"}, {"measurement": "activity at 0.3 µM", "setting": "[1]; NCI-H441, read-out: Proliferation inhibition in PPIA KO cells treated with RMC-7977, NCI-H441, 300.00 nM", "value": 27.5, "unit": "%"}, {"measurement": "activity at 5.08 pM", "setting": "[1]; NCI-H441, read-out: Proliferation inhibition in PPIA KO cells treated with RMC-7977, NCI-H441, […]", "value": 120, "unit": "%"}, {"measurement": "activity at 0.00041 µM", "setting": "[1]; NCI-H441, read-out: pERK inhibition in PPIA KO cells treated with RMC-7977, NCI-H441, 0.41 nM", "value": 88.1, "unit": "%"}, {"measurement": "activity at 0.0037 µM", "setting": "[1]; NCI-H441, read-out: pERK inhibition in PPIA KO cells treated with RMC-7977, NCI-H441, 3.70 nM", "value": 11.8, "unit": "%"}, {"measurement": "Proliferation inhibition with CYPA inhibitor competition", "setting": "[1]; NCI-H441, RMC-7977 0.0152 nM", "value": "112.235 and 120.202"}, {"measurement": "pERK signal remaining (% of control) with CYPA inhibitor competition", "setting": "[1]; NCI-H441, RMC-7977 0.0152 nM", "value": "101.09 and 141.742 and 99.9715 and 108.212"}, {"measurement": "Proliferation inhibition with CYPA inhibitor competition", "setting": "[1]; NCI-H441, RMC-7977 0.0457 nM", "value": "127.307 and 133.477"}, {"measurement": "pERK signal remaining (% of control) with CYPA inhibitor competition", "setting": "[1]; NCI-H441, RMC-7977 0.0457 nM", "value": "116.541 and 138.344 and 94.9151 and 96.9475"}, {"measurement": "Proliferation inhibition with CYPA inhibitor competition", "setting": "[1]; NCI-H441, RMC-7977 0.41 nM", "value": "83.6742 and 95.5735 and 83.4726 and 112.168"}, {"measurement": "Proliferation inhibition with CYPA inhibitor competition", "setting": "[1]; NCI-H441, RMC-7977 3.70 nM", "value": "34.5277 and 37.2472 and 40.6838 and 40.7762"}, {"measurement": "pERK signal remaining (% of control) with CYPA inhibitor competition", "setting": "[1]; NCI-H441, RMC-7977 3.70 nM", "value": "11.9888 and 19.4005 and 10.392 and 10.3218"}, {"measurement": "Proliferation inhibition with CYPA inhibitor competition", "setting": "[1]; NCI-H441, RMC-7977 11.11 nM", "value": "26.6151 and 22.9193 and 35.0508 and 37.4802"}, {"measurement": "Proliferation inhibition with CYPA inhibitor competition", "setting": "[1]; NCI-H441, RMC-7977 33.33 nM", "value": "29.0347 and 22.8651 and 29.7232 and 34.4423"}, {"measurement": "Proliferation inhibition with CYPA inhibitor competition", "setting": "[1]; NCI-H441, RMC-7977 100.00 nM", "value": "28.8791 and 27.2758 and 27.7958 and 31.2386"}, {"measurement": "Proliferation inhibition with CYPA inhibitor competition", "setting": "[1]; NCI-H441, RMC-7977 300.00 nM", "value": "32.3111 and 29.0775 and 27.5922 and 25.4872"}, {"measurement": "TR-FRET of recombinant KRAS and RALGDS RID", "setting": "KRAS^G12V; RMC-7977 0.005 nM with CYPA", "value": "1.0295 and 1.03 and 1.0995 and 1.02"}, {"measurement": "TR-FRET of recombinant KRAS and RALGDS RID", "setting": "KRAS^G12V; RMC-7977 0.046 nM with CYPA", "value": "1.033 and 0.9862 and 0.9822 and 1.02"}, {"measurement": "TR-FRET of recombinant KRAS and RALGDS RID", "setting": "KRAS^G12V; RMC-7977 0.412 nM with CYPA", "value": "0.9113 and 1.003 and 0.948 and 0.8985"}, {"measurement": "TR-FRET of recombinant KRAS and RALGDS RID", "setting": "KRAS^G12V; RMC-7977 1.235 nM with CYPA", "value": "0.868 and 0.861 and 0.9113 and 0.9277"}, {"measurement": "TR-FRET of recombinant KRAS and RALGDS RID", "setting": "KRAS^G12V; RMC-7977 3.704 nM with CYPA", "value": "0.6665 and 0.6727 and 0.7087 and 0.775"}, {"measurement": "TR-FRET of recombinant KRAS and RALGDS RID", "setting": "KRAS^G12V; RMC-7977 11.111 nM with CYPA", "value": "0.4672 and 0.5503 and 0.4273 and 0.4677"}, {"measurement": "TR-FRET of recombinant KRAS and RALGDS RID", "setting": "KRAS^G12V; RMC-7977 33.333 nM with CYPA", "value": "0.2172 and 0.237 and 0.1963 and 0.1593"}, {"measurement": "TR-FRET of recombinant KRAS and RALGDS RID", "setting": "KRAS^G12V; RMC-7977 100.000 nM with CYPA", "value": "0.031 and -0.01375 and 0.0395 and 0.0045"}, {"measurement": "IC50", "setting": "KRAS^G12V; KRAS^G12V, recombinant, with CYPA", "value": 8, "unit": "nM"}]}]}
